The values that follow come from patent US8952157B2, “Apoptosis-inducing agents for the treatment of cancer and immune and autoimmune diseases” (AbbVie Inc., priority 2008, dated 2015).

This test has as its target GST-Bcl-2 (Homo sapiens (Human), UniProt P10415). Nature of the test: Time Resolved-Fluorescence Resonance Energy Transfer (TR-FRET) Bcl-2 binding assay. The following applies: GST-Bcl-2 1 nM, F-Bak peptide probe 100 nM, Tb-anti-GST antibody 1 nM; Ki by Wang's equation. The procedure, abridged:
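Ki values derived from TR-FRET displacement of F-Bak peptide from GST-Bcl-2, detected with Tb-labelled anti-GST antibody (ex 340, em 520/495 nm). Compound dilution series started at 50 μM (2× starting concentration); room-temperature incubation 3 hours.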
For orientation: In TR-FRET formats the signal depends on donor and acceptor labels being close together.

Bounds are passed on as bounds.

Chain of GST-Bcl-2 (P10415 whole entry): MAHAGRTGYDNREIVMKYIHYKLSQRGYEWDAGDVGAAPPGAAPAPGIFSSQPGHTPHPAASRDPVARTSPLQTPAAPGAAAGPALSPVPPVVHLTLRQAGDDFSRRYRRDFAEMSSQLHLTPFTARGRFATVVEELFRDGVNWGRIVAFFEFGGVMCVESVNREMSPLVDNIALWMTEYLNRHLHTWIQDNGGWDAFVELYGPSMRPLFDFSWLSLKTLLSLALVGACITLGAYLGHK

Take `CC1(C)CCC(CN2CCN(c3ccc(C(=O)NS(=O)(=O)c4ccc(NCC5COCCO5)c([N+](=O)[O-])c4)c(Oc4cnc(N)c(Cl)c4)c3)CC2)=C(c2ccc(Cl)cc2)C1` (stereo not shown) [Example 346, 2-[(6-amino-5-chloropyridin-3-yl)oxy]-4-(4-{[2-(4-chlorophenyl)-4,4-dimethylcyclohex-1-en-1-yl]methyl}piperazin-1-yl)-N-({4-[(1,4-dioxan-2-ylmethyl)amino]-3-nitrophenyl}sulfonyl)benzamide]: the Ki (as a rule, the equilibrium dissociation constant of an inhibitor or competing ligand from its target) was less than 0.01 nM.
The same measure for `CN1CCC(Nc2ccc(S(=O)(=O)NC(=O)c3ccc(N4CCN(CC5=C(c6ccc(Cl)cc6)CC(C)(C)CC5)CC4)cc3Oc3cccc(F)c3)cc2[N+](=O)[O-])CC1` [Example 112, 4-(4-{[2-(4-chlorophenyl)-4,4-dimethylcyclohex-1-en-1-yl]methyl}piperazin-1-yl)-2-(3-fluorophenoxy)-N-({4-[(1-methylpiperidin-4-yl)amino]-3-nitrophenyl}sulfonyl)benzamide]: 0.042 nM; for `Cc1n[nH]c2cccc(Oc3cc(N4CCN(CC5=C(c6ccc(Cl)cc6)CC(C)(C)CC5)CC4)ccc3C(=O)NS(=O)(=O)c3ccc(NCCCN4CCOCC4)c([N+](=O)[O-])c3)c12` [Example 44, 4-(4-((2-(4-chlorophenyl)-4,4-dimethylcyclohex-1-en-1-yl)methyl)piperazin-1-yl)-2-((3-methyl-1H-indazol-4-yl)oxy)-N-((4-((3-morpholin-4-ylpropyl)amino)-3-nitrophenyl)sulfonyl)benzamide]: 0.036 nM; for `CC1(C)CCC(CN2CCN(c3ccc(C(=O)NS(=O)(=O)c4ccc(N[C@@H]5CCN(C(CF)CF)C5)c([N+](=O)[O-])c4)c(Oc4cnc(N)c(Cl)c4)c3)CC2)=C(c2ccc(Cl)cc2)C1` [Example 394, 2-[(6-amino-5-chloropyridin-3-yl)oxy]-4-(4-{[2-(4-chlorophenyl)-4,4-dimethylcyclohex-1-en-1-yl]methyl}piperazin-1-yl)-N-{[4-({(3R)-1-[2-fluoro-1-(fluoromethyl)ethyl]pyrrolidin-3-yl}amino)-3-nitrophenyl]sulfonyl}benzamide]: 0.018 nM.
The value for `CC1(C)CCC(CN2CCN(c3ccc(C(=O)NS(=O)(=O)c4ccc(NCC5CCOCC5)c([N+](=O)[O-])c4)c(Oc4cncc(Br)c4)c3)CC2)=C(c2ccc(Cl)cc2)C1` [Example 274, 2-[(5-bromopyridin-3-yl)oxy]-4-(4-{[2-(4-chlorophenyl)-4,4-dimethylcyclohex-1-en-1-yl]methyl}piperazin-1-yl)-N-({3-nitro-4-[(tetrahydro-2H-pyran-4-ylmethyl)amino]phenyl}sulfonyl)benzamide] was 0.936 nM; that for `CC1(C)CCC(CN2CCN(c3ccc(C(=O)NS(=O)(=O)c4ccc(OCC5CCOCC5)c([N+](=O)[O-])c4)c(Oc4cnc(N)c(Cl)c4)c3)CC2)=C(c2ccc(Cl)cc2)C1` [Example 381, 2-[(6-amino-5-chloropyridin-3-yl)oxy]-4-(4-{[2-(4-chlorophenyl)-4,4-dimethylcyclohex-1-en-1-yl]methyl}piperazin-1-yl)-N-{[3-nitro-4-(tetrahydro-2H-pyran-4-ylmethoxy)phenyl]sulfonyl}benzamide] was 0.02 nM.
`O=C(NS(=O)(=O)c1ccc(NCC2CCOCC2)cc1)c1ccc(N2CCN(Cc3ccccc3-c3ccc(Cl)cc3)CC2)cc1Oc1cccc([N+](=O)[O-])c1` [Example 77, 4-(4-((4′-chloro-1,1′-biphenyl-2-yl)methyl)piperazin-1-yl)-2-(3-nitrophenoxy)-N-((4-((tetrahydro-2H-pyran-4-ylmethyl)amino)phenyl)sulfonyl)benzamide] had a Ki of 451 nM.
